From paper PMC8624189, “Phenolic Profiles and Biological Activities of Extracts from Edible Wild Fruits Ehretia tinifolia and Sideroxylon lanuginosum” (Foods, 2021)
Converted amounts (≈) assume the structure as drawn.

Key:
erythrocytes = conditions: cited from earlier work
HT-29 cells = test: Antiproliferative activity, Alamar Blue, HT-29; type: cell-based; conditions: Homo sapiens, 24 h exposure, read-out: Half Maximal Inhibitory Concentration HT-29
Protocol: (§1) The antiproliferative effects of extracts of E. tinifolia and S. lanuginosum were assessed using the method described previously by Viveros-Valdez, et al.. HeLa (ATCC® CCL-2), MCF-7 (ATCC® HTB-22) and HT-29 (ATCC® HTB-38) cancer cell lines were used. The cells were seeded in 25 cm^2 tissue culture flasks in Dulbecco’s modified eagle medium (DMEM) mixed with Ham’s nutrients (Ham’s F-12) and supplemented with 10% fetal bovine serum (FBS), adjusting the pH to 7.2. A mixture of antibiotics composed of penicillin and streptomycin (10,000 IU/mL: 10,000 µg/mL; 1 mL of mixture/1 L of medium) was added. Cells were maintained at 37 °C in an incubator under a 5% CO2/95% air atmosphere at constant humidity. Cells were harvested by trypsinization, counted with a hemocytometer, and their viability was confirmed by Trypan Blue (0.4%). The different cancer cell lines were seeded with 5000 cells per well in a 96 well plate.

HeLa cells = test: Antiproliferative activity, Alamar Blue, HeLa; type: cell-based; conditions: Homo sapiens, 24 h exposure, read-out: Half Maximal Inhibitory Concentration HeLa
Protocol: as §1

human erythrocytes = test: Protective effect on human erythrocytes (AAPH-induced hemolysis); type: cell-based; conditions: Erythrocyte, 37 °C, 3 h, read-out: Hemolytic Inhibition IC50
Protocol: Hemolysis was induced by peroxyl radicals generated by AAPH (2-2'-Azobis (2-amidinopropane dihydrochloride) according to the methodology of Silva-Beltrán et al.. Then, 5 mL of blood was obtained from healthy human volunteers by venipuncture and collected into tubes containing EDTA as an anticoagulant. Erythrocytes were separated from plasma by centrifugation at 1500 rpm for 10 min at room temperature and washed three times with five volumes of phosphate-buffered saline (PBS) (37 mM of NaCl, 2.7 mM of KCI, 8 mM of Na2HPO4, and 2 mM of KH2PO4 w/v) at pH 7.4. Later, erythrocytes were suspended in four volumes of PBS solution to obtain a density of 8 × 10^9 cells/mL. The addition of AAPH to the suspension of washed erythrocytes induces oxidation of membrane lipids and proteins, resulting in hemolysis. The erythrocyte suspension (250 μL) was mixed with 250 μL of fruit extracts dissolved in PBS at concentrations of 500, 750, 1000, 2000 μg/mL and 250 μL of 300 mM AAPH in PBS. The reaction mixture was shaken gently while being incubated at 37 °C for 3 h. […] The supernatant's absorbance was measured in a microplate reader (Agilent BioTek Epoch, Santa Clara, CA, United States) at 540 nm. Percent inhibition was calculated by the following equation:% Inhibition = [[…] × 100] where AAAPH is the absorbance of AAPH at 540 nm and As is the absorbance of the extracts at 540 nm. […]

MCF-7 cells = conditions: read-out: EC50 in inhibiting MCF-7 cell growth; cited from earlier work

In the case of Oc1cc(O)c2c(c1)O[C@H](c1ccc(O)c(O)c1)[C@H](O)C2 [epicatechin], the “hemolysis inhibition IC50” value (erythrocytes) is given as 42.3 µg/mL.

In the case of CC(=O)O[C@H]1C(=O)[C@@]2(C)[C@H]([C@H](OC(=O)c3ccccc3)[C@]3(O)C[C@H](OC(=O)[C@H](O)[C@@H](NC(=O)c4ccccc4)c4ccccc4)C(C)=C1C3(C)C)[C@]1(OC(C)=O)CO[C@@H]1C[C@@H]2O [taxol, Taxol], the IC50 (HT-29 cells) is reported as 15 ± 1 µg/mL (≈ 17.6 µM) and the IC50 (HeLa cells) is reported as 11 ± 2 µg/mL (≈ 12.9 µM).

For O=C1O[C@H]([C@@H](O)CO)C(O)=C1O [ascorbic acid], the IC50 (human erythrocytes) was 289 ± 20 µg/mL (≈ 1640 µM).

In the case of O=c1c(O[C@@H]2O[C@H](CO)[C@@H](O)[C@H](O)[C@H]2O)c(-c2ccc(O)c(O)c2)oc2cc(O)cc(O)c12 [QG, quercetin glucoside], the EC50 (MCF-7 cells) is given as 46.4 µM.
